Measured values reported in the NIST ThermoML archive (doi:10.1021/je900596d).

Settings: Vibrating tube method

FC(F)=C(F)C(F)(F)F [hexafluoropropene]
Settings | mass density [kg/m3]
348.12 K, 1780.6 kPa, Fluid (supercritical or subcritical phases) | 126.81
348.12 K, 1804.3 kPa, Fluid (supercritical or subcritical phases) | 129.36
348.12 K, 1829.7 kPa, Fluid (supercritical or subcritical phases) | 132.19
348.12 K, 1851.6 kPa, Fluid (supercritical or subcritical phases) | 134.57
348.12 K, 1872.9 kPa, Fluid (supercritical or subcritical phases) | 137.09
348.12 K, 1894.9 kPa, Fluid (supercritical or subcritical phases) | 139.69
348.12 K, 1917.6 kPa, Fluid (supercritical or subcritical phases) | 142.36
348.12 K, 1939.9 kPa, Fluid (supercritical or subcritical phases) | 144.88
348.12 K, 1967.9 kPa, Fluid (supercritical or subcritical phases) | 148.35
348.12 K, 1992.7 kPa, Fluid (supercritical or subcritical phases) | 151.5
348.12 K, 2016.1 kPa, Fluid (supercritical or subcritical phases) | 154.47
348.12 K, 2044.1 kPa, Fluid (supercritical or subcritical phases) | 158.31
348.12 K, 2068.5 kPa, Fluid (supercritical or subcritical phases) | 161.51
348.12 K, 2096.5 kPa, Fluid (supercritical or subcritical phases) | 165.49
348.12 K, 2143.5 kPa, Fluid (supercritical or subcritical phases) | 172.38
348.12 K, 2192.1 kPa, Fluid (supercritical or subcritical phases) | 180.05
348.12 K, 2212.1 kPa, Fluid (supercritical or subcritical phases) | 183.28
348.12 K, 2238.5 kPa, Fluid (supercritical or subcritical phases) | 187.82
348.12 K, 2266 kPa, Fluid (supercritical or subcritical phases) | 192.69
348.12 K, 2288.1 kPa, Fluid (supercritical or subcritical phases) | 196.82
348.12 K, 2310.2 kPa, Fluid (supercritical or subcritical phases) | 201.01
348.12 K, 2332.6 kPa, Fluid (supercritical or subcritical phases) | 205.6
348.12 K, 2354 kPa, Fluid (supercritical or subcritical phases) | 210.08
348.12 K, 2375.5 kPa, Fluid (supercritical or subcritical phases) | 214.74
348.12 K, 2397.3 kPa, Fluid (supercritical or subcritical phases) | 219.85
348.12 K, 2419.9 kPa, Fluid (supercritical or subcritical phases) | 225.48
348.12 K, 2442.3 kPa, Fluid (supercritical or subcritical phases) | 231.34
348.12 K, 2470.6 kPa, Fluid (supercritical or subcritical phases) | 239.59
348.12 K, 2472.8 kPa, Fluid (supercritical or subcritical phases) | 240.22
348.12 K, 2475.3 kPa, Fluid (supercritical or subcritical phases) | 241.04
348.12 K, 2478 kPa, Fluid (supercritical or subcritical phases) | 241.76
348.12 K, 2479.4 kPa, Fluid (supercritical or subcritical phases) | 242.23
348.12 K, 2481.5 kPa, Fluid (supercritical or subcritical phases) | 242.88
348.12 K, 2484.1 kPa, Fluid (supercritical or subcritical phases) | 243.75
348.12 K, 2485.5 kPa, Fluid (supercritical or subcritical phases) | 244.17
348.12 K, 2487.8 kPa, Fluid (supercritical or subcritical phases) | 244.94
348.12 K, 2490.1 kPa, Fluid (supercritical or subcritical phases) | 245.8
348.12 K, 2493.8 kPa, Fluid (supercritical or subcritical phases) | 247.53
348.12 K, 2495.7 kPa, Fluid (supercritical or subcritical phases) | 248.38
348.12 K, 2497.4 kPa, Fluid (supercritical or subcritical phases) | 248.67
348.12 K, 2498.8 kPa, Fluid (supercritical or subcritical phases) | 250.42
348.12 K, 2499.7 kPa, Fluid (supercritical or subcritical phases) | 251.97
348.12 K, 2500.9 kPa, Fluid (supercritical or subcritical phases) | 254.86
348.12 K, 2501.9 kPa, Fluid (supercritical or subcritical phases) | 260.28
348.12 K, 2502.8 kPa, Fluid (supercritical or subcritical phases) | 268.19
348.16 K, 2506.4 kPa, Liquid | 959.6
348.16 K, 2507.7 kPa, Liquid | 959.78
348.16 K, 2509 kPa, Liquid | 959.97
348.16 K, 2510.7 kPa, Liquid | 960.12
348.16 K, 2511.1 kPa, Liquid | 960.28
348.16 K, 2513.5 kPa, Liquid | 960.38
348.16 K, 2516.3 kPa, Liquid | 960.72
348.16 K, 2517 kPa, Liquid | 960.83
348.16 K, 2518.6 kPa, Liquid | 961.02
348.16 K, 2520.1 kPa, Liquid | 961.1
348.16 K, 2520.8 kPa, Liquid | 961.16
348.16 K, 2522.6 kPa, Liquid | 961.35
348.16 K, 2523.5 kPa, Liquid | 961.75
348.16 K, 2525.5 kPa, Liquid | 961.71
348.16 K, 2526.1 kPa, Liquid | 961.8
348.16 K, 2530 kPa, Liquid | 962.41
348.16 K, 2532.2 kPa, Liquid | 962.81
348.16 K, 2535.5 kPa, Liquid | 963.11
348.16 K, 2538.4 kPa, Liquid | 963.1
348.16 K, 2542.3 kPa, Liquid | 963.6
348.16 K, 2544.8 kPa, Liquid | 963.72
348.16 K, 2547.3 kPa, Liquid | 963.99
348.16 K, 2549.5 kPa, Liquid | 964.46
348.16 K, 2554.5 kPa, Liquid | 964.95
348.16 K, 2561 kPa, Liquid | 965.66
348.16 K, 2568.5 kPa, Liquid | 966.39
348.16 K, 2574.8 kPa, Liquid | 967.01
348.16 K, 2581.7 kPa, Liquid | 967.68
348.16 K, 2588.5 kPa, Liquid | 968.36
348.16 K, 2595 kPa, Liquid | 968.97
348.16 K, 2601.2 kPa, Liquid | 969.69
348.16 K, 2614.7 kPa, Liquid | 970.9
348.16 K, 2627.6 kPa, Liquid | 972.33
348.16 K, 2633.8 kPa, Liquid | 972.9
348.16 K, 2640.7 kPa, Liquid | 973.53
348.16 K, 2654.7 kPa, Liquid | 974.76
348.16 K, 2667.6 kPa, Liquid | 976.02
348.16 K, 2680.1 kPa, Liquid | 977.1
348.16 K, 2693.1 kPa, Liquid | 978.18
348.16 K, 2706.1 kPa, Liquid | 979.32
348.16 K, 2718.8 kPa, Liquid | 980.44
348.16 K, 2730.9 kPa, Liquid | 981.5
348.16 K, 2744.5 kPa, Liquid | 982.55
348.16 K, 2756.9 kPa, Liquid | 983.71
348.16 K, 2770.2 kPa, Liquid | 984.59
348.16 K, 2782.7 kPa, Liquid | 985.9
348.16 K, 2796.7 kPa, Liquid | 986.93
348.16 K, 2809.4 kPa, Liquid | 987.97
348.16 K, 2835.1 kPa, Liquid | 989.69
348.16 K, 2847.5 kPa, Liquid | 990.63
348.16 K, 2861.9 kPa, Liquid | 991.98
348.16 K, 2875.4 kPa, Liquid | 992.69
348.16 K, 2888.5 kPa, Liquid | 993.69
348.16 K, 2902.4 kPa, Liquid | 994.77
348.16 K, 2923.1 kPa, Liquid | 996.32
348.16 K, 2943.1 kPa, Liquid | 997.63
348.16 K, 2969.1 kPa, Liquid | 999.28
348.16 K, 2994.8 kPa, Liquid | 1001.06
348.16 K, 3015.4 kPa, Liquid | 1002.63
348.16 K, 3036.5 kPa, Liquid | 1004.18
348.16 K, 3061.5 kPa, Liquid | 1005.54
348.16 K, 3081.9 kPa, Liquid | 1006.76
348.16 K, 3102.2 kPa, Liquid | 1008.02
348.16 K, 3129.1 kPa, Liquid | 1009.6
348.16 K, 3135.2 kPa, Liquid | 1009.88
348.16 K, 3142.1 kPa, Liquid | 1010.13
348.16 K, 3154.2 kPa, Liquid | 1010.88
348.16 K, 3176.2 kPa, Liquid | 1012.35
348.16 K, 3202.5 kPa, Liquid | 1013.88
348.16 K, 3223.6 kPa, Liquid | 1015.07
348.16 K, 3244.1 kPa, Liquid | 1016.31
348.16 K, 3266.6 kPa, Liquid | 1017.56
348.16 K, 3287 kPa, Liquid | 1018.73
348.16 K, 3310.2 kPa, Liquid | 1020.02
348.16 K, 3316.2 kPa, Liquid | 1020.28
348.16 K, 3323.1 kPa, Liquid | 1020.54
348.16 K, 3330.6 kPa, Liquid | 1020.95
348.16 K, 3337.3 kPa, Liquid | 1021.47
348.16 K, 3343.7 kPa, Liquid | 1021.72
348.16 K, 3351.1 kPa, Liquid | 1022.04
348.16 K, 3359.3 kPa, Liquid | 1022.61
348.16 K, 3365.4 kPa, Liquid | 1022.8
348.16 K, 3373.8 kPa, Liquid | 1023.35
348.16 K, 3380 kPa, Liquid | 1023.59
348.16 K, 3386.2 kPa, Liquid | 1023.86
348.16 K, 3392.5 kPa, Liquid | 1024.46
348.16 K, 3400.2 kPa, Liquid | 1024.64
348.16 K, 3423.6 kPa, Liquid | 1025.65
